Values belong to the compound of their own block, whether it stands above or below them.
Tests used:
murine Bcrp1 = murine Bcrp1 (Mus musculus, UniProt Q7TMS5); details: [^14C]PhIP 2 μM; n = 1
Method: (§1) For the in vitro transport studies LLC-PK1 cells transduced with human MDR1 or murine Mdr1a and respective wild-type LLC cells were used. Additionally, Madin-Darby canine kidney type II (MDCK-II) cells transduced with murine Bcrp1 or human BCRP or human MRP1 and respective wild-type MDCK-II cells were used. The cell lines were a kind gift from Piet Borst and Alfred Schinkel (The Netherlands Cancer Institute, Amsterdam, the Netherlands). Culturing of the cells was performed as described earlier. MDR1- and Mdr1a-overexpressing LLC cells were regularly tested for vincristine sulfate resistance (0.64 μM) as described before. The MDCK-II cells transduced with Bcrp1 or BCRP were regularly tested for mitoxantrone resistance (20 μM).
(§2) CETA was performed in triplicate as described previously. With a density of 0.3 × 10^6 cells/cm^2 LLC cells were seeded on transparent polyester membrane filters (Transwell-Clear®, 6-well, 24-mm diameter, 0.4-μm pore size, Corning Costar Corporation, Cambridge, MA, USA). […] Transport experiments were performed 5–7 days after the cells reached 100% confluence. […] Control CETA was performed with calcein AM (1 μM) for MRP1 [26] and [^14C]PhIP (2 μM) for Bcrp1/BCRP. The membrane integrity was determined by mannitol diffusion and transepithelial electrical resistance (TEER), with criteria for exclusion described earlier.

human BCRP = human BCRP (Homo sapiens, UniProt Q9UNQ0); details: [^14C]PhIP 2 μM; n = 1
Method: as §1, §2

cerebral Pgp = system: cerebral Pgp; design: method as in PMID 20016890; details: tariquidar 15 mg/kg; rats; cited from earlier work
[1] = design: method as in PMID 19910428; details: cited from earlier work
murine Mdr1a = biological target: T1, murine Mdr1a (Mus musculus, UniProt P21447); assay: CETA in LLC cells transduced with murine Mdr1a; format: in vitro ADME; details: tariquidar 0.5 μM; Mdr1a-overexpressing LLC cells
T1 construct: host or cells: LLC-PK1 (porcine kidney) cells

human MRP1 = human MRP1 (Homo sapiens, UniProt P33527); assay: CETA in MDCK cells transduced with human MRP1; details: calcein AM 1 μM; n = 1
Method: as §1, §2

T1 sequence (P21447 whole entry): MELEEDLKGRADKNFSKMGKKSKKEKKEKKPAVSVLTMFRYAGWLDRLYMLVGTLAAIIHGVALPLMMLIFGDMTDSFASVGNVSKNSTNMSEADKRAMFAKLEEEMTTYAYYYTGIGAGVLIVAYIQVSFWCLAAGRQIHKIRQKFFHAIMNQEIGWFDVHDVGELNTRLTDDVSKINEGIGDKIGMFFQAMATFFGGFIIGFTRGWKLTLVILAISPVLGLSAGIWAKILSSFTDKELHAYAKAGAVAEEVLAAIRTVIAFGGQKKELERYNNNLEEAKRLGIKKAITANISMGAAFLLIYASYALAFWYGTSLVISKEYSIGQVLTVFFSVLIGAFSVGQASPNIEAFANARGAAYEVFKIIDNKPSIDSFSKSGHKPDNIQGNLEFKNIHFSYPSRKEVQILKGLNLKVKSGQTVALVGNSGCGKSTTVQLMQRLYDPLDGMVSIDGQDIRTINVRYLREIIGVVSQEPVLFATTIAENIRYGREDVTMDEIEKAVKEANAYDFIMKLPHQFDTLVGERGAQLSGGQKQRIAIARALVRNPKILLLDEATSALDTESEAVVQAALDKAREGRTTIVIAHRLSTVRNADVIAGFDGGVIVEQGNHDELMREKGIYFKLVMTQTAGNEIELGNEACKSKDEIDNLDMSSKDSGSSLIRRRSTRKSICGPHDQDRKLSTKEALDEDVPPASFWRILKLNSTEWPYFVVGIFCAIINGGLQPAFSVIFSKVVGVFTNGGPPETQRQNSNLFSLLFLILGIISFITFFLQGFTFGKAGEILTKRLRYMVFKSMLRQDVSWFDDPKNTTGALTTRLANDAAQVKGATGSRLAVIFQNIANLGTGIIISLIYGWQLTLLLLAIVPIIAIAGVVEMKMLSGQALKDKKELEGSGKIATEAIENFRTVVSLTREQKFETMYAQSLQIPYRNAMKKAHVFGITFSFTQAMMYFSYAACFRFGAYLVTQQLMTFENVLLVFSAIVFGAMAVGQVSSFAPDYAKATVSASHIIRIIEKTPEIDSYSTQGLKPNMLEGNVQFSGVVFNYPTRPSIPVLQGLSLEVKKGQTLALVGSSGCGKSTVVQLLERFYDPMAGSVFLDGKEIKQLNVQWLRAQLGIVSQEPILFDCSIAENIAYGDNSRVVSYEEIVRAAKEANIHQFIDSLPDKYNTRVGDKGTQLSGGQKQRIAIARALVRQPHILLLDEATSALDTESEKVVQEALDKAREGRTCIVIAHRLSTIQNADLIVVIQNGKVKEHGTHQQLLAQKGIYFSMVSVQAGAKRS
Chain of human MRP1 (P33527 whole entry): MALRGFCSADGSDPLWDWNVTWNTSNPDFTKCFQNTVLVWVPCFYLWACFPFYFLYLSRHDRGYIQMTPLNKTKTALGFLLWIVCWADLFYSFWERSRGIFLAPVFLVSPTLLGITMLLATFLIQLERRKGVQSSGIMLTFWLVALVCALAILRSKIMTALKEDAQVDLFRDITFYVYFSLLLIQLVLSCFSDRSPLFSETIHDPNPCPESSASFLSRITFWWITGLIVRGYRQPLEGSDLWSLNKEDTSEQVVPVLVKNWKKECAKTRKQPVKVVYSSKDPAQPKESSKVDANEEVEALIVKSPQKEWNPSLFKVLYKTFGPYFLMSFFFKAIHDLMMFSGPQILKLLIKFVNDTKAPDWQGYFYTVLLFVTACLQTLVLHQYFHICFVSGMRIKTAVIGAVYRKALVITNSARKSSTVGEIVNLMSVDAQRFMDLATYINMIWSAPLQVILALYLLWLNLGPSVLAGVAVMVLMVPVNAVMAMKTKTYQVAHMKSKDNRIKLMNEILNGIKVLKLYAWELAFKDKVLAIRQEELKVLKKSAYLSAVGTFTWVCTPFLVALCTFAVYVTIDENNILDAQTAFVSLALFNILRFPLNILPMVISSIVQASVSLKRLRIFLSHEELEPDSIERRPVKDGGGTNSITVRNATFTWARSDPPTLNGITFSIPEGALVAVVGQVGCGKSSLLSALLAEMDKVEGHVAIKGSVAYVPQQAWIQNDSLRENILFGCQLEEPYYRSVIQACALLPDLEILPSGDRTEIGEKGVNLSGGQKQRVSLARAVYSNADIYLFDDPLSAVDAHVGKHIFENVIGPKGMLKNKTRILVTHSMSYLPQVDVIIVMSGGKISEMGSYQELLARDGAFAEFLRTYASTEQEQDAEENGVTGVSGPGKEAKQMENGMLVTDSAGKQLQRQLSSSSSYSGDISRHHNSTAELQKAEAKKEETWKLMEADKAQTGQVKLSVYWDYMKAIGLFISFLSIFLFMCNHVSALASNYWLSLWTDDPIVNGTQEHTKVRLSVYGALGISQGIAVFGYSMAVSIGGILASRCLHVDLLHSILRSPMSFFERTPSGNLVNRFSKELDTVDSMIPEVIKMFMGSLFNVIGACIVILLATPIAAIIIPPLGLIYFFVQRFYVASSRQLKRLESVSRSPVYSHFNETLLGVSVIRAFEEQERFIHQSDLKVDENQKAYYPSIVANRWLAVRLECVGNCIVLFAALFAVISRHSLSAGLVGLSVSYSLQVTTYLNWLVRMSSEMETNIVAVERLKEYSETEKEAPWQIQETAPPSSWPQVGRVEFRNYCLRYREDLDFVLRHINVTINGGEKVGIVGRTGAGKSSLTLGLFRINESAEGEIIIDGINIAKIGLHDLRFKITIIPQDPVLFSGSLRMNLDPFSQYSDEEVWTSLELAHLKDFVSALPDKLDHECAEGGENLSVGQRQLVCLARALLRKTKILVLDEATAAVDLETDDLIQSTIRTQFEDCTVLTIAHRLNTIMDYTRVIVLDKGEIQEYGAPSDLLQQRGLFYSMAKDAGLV
Chain of human BCRP (Q9UNQ0 whole entry): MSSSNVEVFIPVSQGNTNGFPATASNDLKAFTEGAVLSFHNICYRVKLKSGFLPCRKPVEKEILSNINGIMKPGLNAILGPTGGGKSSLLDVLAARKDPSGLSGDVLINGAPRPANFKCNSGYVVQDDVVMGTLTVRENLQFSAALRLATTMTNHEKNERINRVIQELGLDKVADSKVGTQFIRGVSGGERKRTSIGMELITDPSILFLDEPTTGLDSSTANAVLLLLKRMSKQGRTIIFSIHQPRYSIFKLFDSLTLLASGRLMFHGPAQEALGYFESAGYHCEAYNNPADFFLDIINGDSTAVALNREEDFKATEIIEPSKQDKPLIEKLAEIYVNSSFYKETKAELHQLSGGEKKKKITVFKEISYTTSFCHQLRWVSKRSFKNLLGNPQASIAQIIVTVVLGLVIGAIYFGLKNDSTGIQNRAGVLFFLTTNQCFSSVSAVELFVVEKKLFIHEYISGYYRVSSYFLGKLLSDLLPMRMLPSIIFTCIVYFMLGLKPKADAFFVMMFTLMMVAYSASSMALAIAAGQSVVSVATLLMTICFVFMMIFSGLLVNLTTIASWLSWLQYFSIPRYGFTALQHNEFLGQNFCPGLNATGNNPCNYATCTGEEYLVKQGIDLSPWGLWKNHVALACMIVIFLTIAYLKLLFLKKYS
Chain of murine Bcrp1 (Q7TMS5 whole entry): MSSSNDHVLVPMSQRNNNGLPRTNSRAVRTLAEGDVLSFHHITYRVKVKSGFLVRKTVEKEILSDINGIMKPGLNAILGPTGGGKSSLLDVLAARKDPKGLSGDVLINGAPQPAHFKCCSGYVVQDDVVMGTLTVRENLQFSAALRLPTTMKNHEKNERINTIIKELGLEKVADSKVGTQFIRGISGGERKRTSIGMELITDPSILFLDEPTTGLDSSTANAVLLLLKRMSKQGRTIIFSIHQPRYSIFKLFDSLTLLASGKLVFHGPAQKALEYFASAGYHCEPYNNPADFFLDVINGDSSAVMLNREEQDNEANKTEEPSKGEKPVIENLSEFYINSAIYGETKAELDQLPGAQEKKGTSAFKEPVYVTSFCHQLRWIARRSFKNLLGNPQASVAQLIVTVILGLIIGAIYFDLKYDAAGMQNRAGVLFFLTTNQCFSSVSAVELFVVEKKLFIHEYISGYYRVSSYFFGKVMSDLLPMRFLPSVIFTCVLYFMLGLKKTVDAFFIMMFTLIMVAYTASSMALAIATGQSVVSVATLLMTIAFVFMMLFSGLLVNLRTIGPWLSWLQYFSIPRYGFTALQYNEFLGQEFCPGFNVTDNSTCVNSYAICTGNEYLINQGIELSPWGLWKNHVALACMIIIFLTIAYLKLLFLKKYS

Compound: Cn1c(N)nc2ncc(-c3ccccc3)cc21 [[^14C]PhIP, [^14C]2-amino-1-methyl-6-phenylimidazo[4,5-b]pyridine]
control CETA for Bcrp1 function (murine Bcrp1): functional
control CETA for BCRP function (human BCRP): functional

inhibition of [^3H]verapamil transport (murine Mdr1a): almost completely inhibited
Compound: COc1cc2c(cc1OC)CN(CCc1ccc(NC(=O)c3cc(OC)c(OC)cc3NC(=O)c3cnc4ccccc4c3)cc1)CC2 [tariquidar, Tariquidar dimesylate]
inhibition of cerebral Pgp (cerebral Pgp): complete inhibition
influence on (R)-[^11C]verapamil metabolism and plasma protein binding [1]: does not influence

Compound: calcein AM
control CETA for MRP1 function (human MRP1): functional MRP1 was present

Reference: paper PMC3775124 (Nuclear Medicine and Biology, 2013)
